Data reported in US20260137706A1, “METHODS OF TREATING INFLAMMATORY DISEASES” (INTERLINE THERAPEUTICS, INC., priority 2023, published 2026).

Key:
[1] = test system: NF-κB pathway (SEAP) in THP1-Dual cells; assay: THP-1 Dual cell SEAP assay (L18-MDP stimulated); assay type: cell-based; details: Homo sapiens, THP1-Dual, read-out: NF-κB THP1 IC50 bin
Method in brief: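 THP1-Dual cells (~25,000/well) were preincubated 30 min with serially diluted compounds, then stimulated with 10 ng/mL L18-MDP (final) for 20-24 h at 37 °C. Supernatant SEAP was read with QUANTI-Blue at OD 620-655 nm after 2 h. IC50 came from non-linear fits of % inhibition versus DMSO/L18-MDP controls after media-blank subtraction.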

[2] = target: T1, GST-RIPK2 fusion protein (human RIPK2, amino acids 1-310) (Homo sapiens, UniProt O43353); assay: RIPK2 binding competition assay (TR-FRET, Tracer 199 displacement); details: 10 nM Tracer 199, 1 nM GST-RIPK2, read-out: RIPK2 IC50
T1 construct: made in house; host or cells: baculovirus infected Sf9 cells
T1 sequence (O43353 1-310): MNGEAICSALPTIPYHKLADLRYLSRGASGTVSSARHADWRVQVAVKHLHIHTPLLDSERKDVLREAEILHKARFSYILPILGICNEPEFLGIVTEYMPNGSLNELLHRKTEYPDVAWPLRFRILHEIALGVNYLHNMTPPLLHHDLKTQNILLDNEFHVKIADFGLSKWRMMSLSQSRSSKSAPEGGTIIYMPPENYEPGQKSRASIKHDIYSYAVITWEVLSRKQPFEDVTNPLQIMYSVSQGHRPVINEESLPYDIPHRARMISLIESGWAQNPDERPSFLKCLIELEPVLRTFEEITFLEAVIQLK
Method in brief: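 GST-RIPK2 (human aa 1-310, Sf9-expressed; final 1 nM) with Tracer 199 (final 10 nM) and Tb-anti-GST (final 0.5 nM) in Tris pH 7.5 buffer, 45 min at 22 °C. TR-FRET 665/620 nm ratio after 337 nm excitation; normalized to no-inhibitor (0%) and no-protein (−100%), giving IC50.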

[3] = target: T2, binding of His-XIAP(BIR2)-avi fusion protein to GST-RIPK2 fusion protein (RIPK2/XIAP) (Homo sapiens, UniProt O43353); assay: RIPK2-XIAP binding competition PPI assay (TR-FRET); details: RIPK2/XIAP binding competition PPI assay; for Emax: Amax, read-out: PPI Amax bin; for IC50: read-out: PPI IC50 bin
T2 construct: made in house; host or cells: baculovirus infected Sf9 cells
T2 sequence (O43353 1-310 limits assumed): as the sequence (O43353 1-310) above
Method in brief: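 Compounds (in DMSO, 100-fold stock) incubated 120 min at 23 °C with 1 nM GST-RIPK2 (aa 1-310) and 25 nM His-XIAP(BIR2 aa 152-231)-avi, plus anti-His-XL665 and anti-GST-Tb, in pH 7.5 Tris buffer. Read-out: 665/520 nm emission ratio. Normalized to no-inhibitor (0%) and 50 nM GSK583 (−100%); Amax binned A–D.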

| Compound | IC50 [1] | IC50 [2] | Emax [3] | IC50 [3] |
| --- | --- | --- | --- | --- |
| COc1cc2ncc(-c3cccc(NS(=O)(=O)C4COC4)c3)n2cc1S(=O)(=O)C(C)(C)C [Example 150, N-(3-(6-(tert-butylsulfonyl)-7-methoxyimidazo[1,2-a]pyridin-3-yl)phenyl)oxetane-3-sulfonamide] | > 1000 nM | 2.5 to 20 nM | > 80% | 2.5 to 20 nM |
| CCS(=O)(=O)Nc1cc(-c2cnc3cc(OC[C@@H](C)O)c(S(=O)(=O)C(C)(C)C)cn23)cc(F)c1OC [Example 252, (R)-N-(5-(6-(tert-butylsulfonyl)-7-(2-hydroxypropoxy)imidazo[1,2-a]pyridin-3-yl)-3-fluoro-2-methoxyphenyl) ethanesulfonamide] | < 50 nM | < 1 nM | > 80% | < 1 nM |
| CC(C)(C)S(=O)(=O)c1cn2c(-c3cnc4[nH]ccc4c3)cnc2cc1OCCO [Example 53, 2-((6-(tert-butylsulfonyl)-3-(1H-pyrrolo[2,3-b]pyridin-5-yl)imidazo[1,2-a]pyridin-7-yl)oxy)ethan-1-ol] | 50 to 250 nM | < 1 nM | > 80% | 1 to 2.5 nM |
| C[C@@H](O)COc1cc2ncc(-c3cc4cc[nH]c4nc3F)n2cc1S(=O)(=O)C(C)(C)C [Example 251, (R)-1-((6-(tert-butylsulfonyl)-3-(6-fluoro-1H-pyrrolo[2,3-b]pyridin-5-yl)imidazo[1,2-a]pyridin-7-yl)oxy)propan-2-ol] | < 50 nM | < 1 nM | > 80% | < 1 nM |
| COc1cc2ncc(-c3cc(F)c(OC)c(NS(=O)(=O)CC(F)(F)F)c3)n2cc1S(=O)(=O)C(C)(C)C [Example 143, N-(5-(6-(tert-butylsulfonyl)-7-methoxyimidazo[1,2-a]pyridin-3-yl)-3-fluoro-2-methoxyphenyl)-2,2,2-trifluoroethane-1-sulfonamide] | 250 to 1000 nM | 1 to 2.5 nM | 55 to 80% | 1 to 2.5 nM |
| CC(C)(C)S(=O)(=O)c1cn2c(-c3cc(F)c(N)nc3F)cnc2cc1OCCN1CC(O)C1 [Example 41, 1-(2-((3-(6-amino-2,5-difluoropyridin-3-yl)-6-(tert-butylsulfonyl)imidazo[1,2-a]pyridin-7-yl)oxy)ethyl)azetidin-3-ol] | > 1000 nM | 2.5 to 20 nM | > 80% | 2.5 to 20 nM |
| COc1cc2ncc(-c3ccc4c(N)nn(C)c4c3)n2cc1S(=O)(=O)C(C)(C)C [Example 102, 6-(6-(tert-butylsulfonyl)-7-methoxyimidazo[1,2-a]pyridin-3-yl)-1-methyl-1H-indazol-3-amine] | > 1000 nM | > 20 nM | < 30% | > 20 nM |
| C[C@@H](O)COc1cn2ncc(-c3cc(F)c(N)nc3F)c2cc1S(=O)(=O)C(C)(C)C [Example 259, (R)-1-((3-(6-amino-2,5-difluoropyridin-3-yl)-5-(tert-butylsulfonyl)pyrazolo [1,5-a]pyridin-6-yl)oxy)propan-2-ol] | 50 to 250 nM | 2.5 to 20 nM | > 80% | 1 to 2.5 nM |
| CC(C)(C)S(=O)(=O)c1cn2c(-c3cc(F)c(N)nc3F)cnc2cc1OCC1(CO)CC1 [Example 56, (1-(((3-(6-amino-2,5-difluoropyridin-3-yl)-6-(tert-butylsulfonyl)imidazo[1,2-a]pyridin-7-yl)oxy)methyl)cyclopropyl)methanol] | 50 to 250 nM | 2.5 to 20 nM | > 80% | 2.5 to 20 nM |
| CCCS(=O)(=O)Nc1cc(-c2cnc3cc(OC)c(C(=O)N(C)C(C)C)cn23)cc(F)c1OC [Example 205, 3-(3-fluoro-4-methoxy-5-(propylsulfonamido)phenyl)-N-isopropyl-7-methoxy-N-methylimidazo[1,2-a]pyridine-6-carboxamide] | > 1000 nM | > 20 nM | 55 to 80% | > 20 nM |
| COc1cc2ncc(-c3ccc(N)nc3F)n2cc1S(=O)(=O)CCCO [Example 61, 3-((3-(6-amino-2-fluoropyridin-3-yl)-7-methoxyimidazo[1,2-a]pyridin-6-yl)sulfonyl)propan-1-ol] | > 1000 nM | > 20 nM | > 80% | > 20 nM |
| CC(C)(C)S(=O)(=O)c1cn2c(-c3cc(F)c(N)nc3F)cnc2cc1OCCCO [Example 17, 3-((3-(6-amino-2,5-difluoropyridin-3-yl)-6-(tert-butylsulfonyl)imidazo[1,2-a]pyridin-7-yl)oxy)propan-1-ol] | 50 to 250 nM | 1 to 2.5 nM | > 80% | 1 to 2.5 nM |
| CC(C)(C)S(=O)(=O)c1cn2c(-c3cnc4[nH]cc(Cl)c4c3)cnc2cc1OCCO [Example 219, 2-((6-(tert-butylsulfonyl)-3-(3-chloro-1H-pyrrolo[2,3-b]pyridin-5-yl)imidazo[1,2-a]pyridin-7-yl)oxy)ethan-1-ol] | 50 to 250 nM | 1 to 2.5 nM | > 80% | 1 to 2.5 nM |
| COc1cc2ncc(-c3cc(F)c(OC)c(NS(=O)(=O)c4ccn(C)n4)c3)n2cc1S(=O)(=O)C(C)(C)C [Example 134, N-(5-(6-(tert-butylsulfonyl)-7-methoxyimidazo[1,2-a]pyridin-3-yl)-3-fluoro-2-methoxyphenyl)-1-methyl-1H-pyrazole-3-sulfonamide] | < 50 nM | 1 to 2.5 nM | > 80% | < 1 nM |
| COCCn1cc(-c2cc3ncc(-c4cc(F)c(N)nc4F)n3cc2S(=O)(=O)C(C)(C)C)cn1 [Example 23, 5-(6-(tert-butylsulfonyl)-7-(1-(2-methoxyethyl)-1H-pyrazol-4-yl)imidazo[1,2-a]pyridin-3-yl)-3,6-difluoropyridin-2-amine] | 250 to 1000 nM | 2.5 to 20 nM | > 80% | 2.5 to 20 nM |
| COCCOc1cc2ncc(-c3cc(F)c(N)nc3F)n2cc1S(=O)(=O)C(C)(C)C [Example 16, 5-(6-(tert-butylsulfonyl)-7-(2-methoxyethoxy)imidazo[1,2-a]pyridin-3-yl)-3,6-difluoropyridin-2-amine] | 250 to 1000 nM | 2.5 to 20 nM | > 80% | 2.5 to 20 nM |
| CC(C)(C)S(=O)(=O)c1cn2c(-c3cc(Br)c(N)nc3F)cnc2cc1OCCO [Example 186, 2-((3-(6-amino-5-bromo-2-fluoropyridin-3-yl)-6-(tert-butylsulfonyl)imidazo[1,2-a]pyridin-7-yl)oxy)ethan-1-ol] | 250 to 1000 nM | 2.5 to 20 nM | > 80% | 2.5 to 20 nM |
| CN1CCN(CCOc2cc3ncc(-c4cc(F)c(N)nc4F)n3cc2S(=O)(=O)C(C)(C)C)CC1 [Example 19, 5-(6-(tert-butylsulfonyl)-7-(2-(4-methylpiperazin-1-yl)ethoxy)imidazo[1,2-a]pyridin-3-yl)-3,6-difluoropyridin-2-amine] | 250 to 1000 nM | 2.5 to 20 nM | > 80% | 2.5 to 20 nM |
| COc1c(F)cc(-c2cnc3cc(OCCO)c(S(=O)(=O)C(C)(C)C)cn23)cc1NS(=O)(=O)c1cnn(C)c1 [Example 225, N-(5-(6-(tert-butylsulfonyl)-7-(2-hydroxyethoxy)imidazo[1,2-a]pyridin-3-yl)-3-fluoro-2-methoxyphenyl)-1-methyl-1H-pyrazole-4-sulfonamide] | < 50 nM | < 1 nM | > 80% | < 1 nM |
| CCCS(=O)(=O)Nc1cc(-c2cnn3cc(OC)c(S(=O)(=O)C(C)(C)CO)cc23)cc(F)c1OC [Example 132] | < 50 nM | < 1 nM | > 80% | < 1 nM |
| COc1cc2ncc(-c3cc(F)c(N)nc3F)n2cc1S(=O)(=O)C(C)(C)Cn1cccn1 [Example 65, 3,6-difluoro-5-(7-methoxy-6-((2-methyl-1-(1H-pyrazol-1-yl)propan-2-yl)sulfonyl)imidazo[1,2-a]pyridin-3-yl)pyridin-2-amine] | > 1000 nM | > 20 nM | > 80% | > 20 nM |
| CC(C)(C)S(=O)(=O)c1cn2c(-c3cc(F)c(N)nc3F)cnc2cc1OCCn1cccn1 [Example 24, 5-(7-(2-(1H-pyrazol-1-yl)ethoxy)-6-(tert-butylsulfonyl)imidazo[1,2-a]pyridin-3-yl)-3,6-difluoropyridin-2-amine] | 50 to 250 nM | 2.5 to 20 nM | > 80% | 2.5 to 20 nM |
| CCS(=O)(=O)Nc1cc(-c2cnc3cc(OC)c(C(=O)N4CCOCC4)cn23)cc(F)c1OC [Example 190, N-(3-fluoro-2-methoxy-5-(7-methoxy-6-(morpholine-4-carbonyl)imidazo[1,2-a]pyridin-3-yl)phenyl) ethanesulfonamide] | > 1000 nM | > 20 nM | 55 to 80% | > 20 nM |
